Measured values: ChEMBL document CHEMBL4177694, “Discovery of the first low-shift positive allosteric modulators for the muscarinic M1 receptor” (Bioorg Med Chem Lett, 2017)
Active and inactive are the calls of the source. The calls are words filed in the database; no cut-off is given here.

How the values were obtained:
[1] = target: T1, Muscarinic acetylcholine receptor M1 (Homo sapiens) (UniProt P11229); test: (§1) Positive allosteric modulation of human wild type M1 receptor assessed as increase in acetylcholine-induced calcium flux by FLIPR assay; format: functional
T1 sequence (whole entry): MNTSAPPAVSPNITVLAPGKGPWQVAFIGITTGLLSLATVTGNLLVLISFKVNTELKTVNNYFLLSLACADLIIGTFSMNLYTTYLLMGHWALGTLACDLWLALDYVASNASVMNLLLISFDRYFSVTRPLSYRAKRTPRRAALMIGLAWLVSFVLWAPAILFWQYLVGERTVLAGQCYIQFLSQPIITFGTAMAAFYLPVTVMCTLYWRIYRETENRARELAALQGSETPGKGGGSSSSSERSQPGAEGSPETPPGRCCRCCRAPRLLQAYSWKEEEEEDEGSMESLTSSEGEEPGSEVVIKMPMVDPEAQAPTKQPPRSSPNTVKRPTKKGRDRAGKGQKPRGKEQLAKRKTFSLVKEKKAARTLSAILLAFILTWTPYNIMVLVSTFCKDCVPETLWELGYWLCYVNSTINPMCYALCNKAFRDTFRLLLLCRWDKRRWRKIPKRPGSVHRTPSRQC

[2] = Displacement of [3H]-Ro 15-1788 from rat brain synaptosomal membranes GABA receptor after 90 mins
[3] = target: T2, Muscarinic acetylcholine receptor M1 (Homo sapiens, UniProt P11229); test: as §1; format: functional
T2 sequence (P11229 whole entry): T1 sequence (whole entry)

[4] = target: T1, Muscarinic acetylcholine receptor M1 (Homo sapiens); test: Positive allosteric modulation of human wild type M1 receptor assessed as increase in acetylcholine-induced calcium flux by FLIPR assay relative to acetylcholine; format: functional
[5] = Stability in mouse microsomes; format: ADME, Microsome
[6] = Drug metabolism in rat microsomes assessed as amide formation; format: ADME, Microsome
[7] = target: Cytochrome P450 3A4 (Homo sapiens, UniProt P08684); test: Inhibition of CYP3A4 (unknown origin); format: ADME
Chain of Cytochrome P450 3A4 (P08684 whole entry): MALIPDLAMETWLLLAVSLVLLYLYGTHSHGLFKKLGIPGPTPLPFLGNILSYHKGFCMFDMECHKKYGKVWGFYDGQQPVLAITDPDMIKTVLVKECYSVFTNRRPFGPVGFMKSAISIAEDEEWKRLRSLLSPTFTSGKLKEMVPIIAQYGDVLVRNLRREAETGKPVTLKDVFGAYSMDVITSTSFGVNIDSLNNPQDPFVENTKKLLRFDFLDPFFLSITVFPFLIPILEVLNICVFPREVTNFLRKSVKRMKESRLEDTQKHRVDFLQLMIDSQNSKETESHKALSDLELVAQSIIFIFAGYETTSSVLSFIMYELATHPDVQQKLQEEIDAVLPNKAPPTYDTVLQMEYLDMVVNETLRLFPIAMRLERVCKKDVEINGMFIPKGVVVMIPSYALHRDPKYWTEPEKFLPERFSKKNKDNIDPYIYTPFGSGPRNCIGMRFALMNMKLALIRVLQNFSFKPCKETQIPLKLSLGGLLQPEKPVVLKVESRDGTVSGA

[8] = Activity at P-gp (unknown origin); format: ADME; details: human
[9] = Stability in human microsomes; format: ADME, Microsome
[10] = target: Gamma-aminobutyric acid receptor subunit alpha-3/beta-3/gamma-2 (Rattus norvegicus, UniProt P18508+P20236+P63079); test: […] rat GABA-A receptor alpha3beta3gamma2 expressed in HEK293 cells by electrophysiology assay; format: cell-based
Chain of Gamma-aminobutyric acid receptor subunit alpha-3/beta-3/gamma-2 (P18508 whole entry): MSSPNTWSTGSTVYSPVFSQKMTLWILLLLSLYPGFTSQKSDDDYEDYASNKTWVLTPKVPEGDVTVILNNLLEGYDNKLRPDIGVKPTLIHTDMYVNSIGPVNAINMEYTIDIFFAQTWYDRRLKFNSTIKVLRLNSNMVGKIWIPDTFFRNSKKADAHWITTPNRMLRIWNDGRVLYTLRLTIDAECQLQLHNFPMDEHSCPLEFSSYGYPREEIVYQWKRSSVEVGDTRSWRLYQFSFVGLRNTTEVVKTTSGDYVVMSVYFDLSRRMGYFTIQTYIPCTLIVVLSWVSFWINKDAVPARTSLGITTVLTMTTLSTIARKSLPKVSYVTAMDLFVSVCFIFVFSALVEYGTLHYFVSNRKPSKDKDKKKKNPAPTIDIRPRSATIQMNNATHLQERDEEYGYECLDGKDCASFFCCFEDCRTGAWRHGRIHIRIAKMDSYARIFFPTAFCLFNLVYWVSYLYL
Chain of Gamma-aminobutyric acid receptor subunit alpha-3/beta-3/gamma-2 (P20236 whole entry): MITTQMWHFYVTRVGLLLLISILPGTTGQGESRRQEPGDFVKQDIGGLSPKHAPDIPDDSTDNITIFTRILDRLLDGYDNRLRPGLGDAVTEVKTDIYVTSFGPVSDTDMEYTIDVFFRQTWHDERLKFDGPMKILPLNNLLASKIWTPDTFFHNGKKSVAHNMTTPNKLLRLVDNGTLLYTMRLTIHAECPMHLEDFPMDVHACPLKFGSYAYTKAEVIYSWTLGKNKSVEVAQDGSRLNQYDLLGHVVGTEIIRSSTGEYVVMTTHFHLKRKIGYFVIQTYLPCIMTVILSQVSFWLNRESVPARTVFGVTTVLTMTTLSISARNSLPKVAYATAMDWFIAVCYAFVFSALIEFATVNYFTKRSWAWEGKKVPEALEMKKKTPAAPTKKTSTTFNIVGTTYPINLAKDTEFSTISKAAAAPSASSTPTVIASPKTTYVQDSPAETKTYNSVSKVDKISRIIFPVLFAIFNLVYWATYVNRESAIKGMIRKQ
Chain of Gamma-aminobutyric acid receptor subunit alpha-3/beta-3/gamma-2 (P63079 whole entry): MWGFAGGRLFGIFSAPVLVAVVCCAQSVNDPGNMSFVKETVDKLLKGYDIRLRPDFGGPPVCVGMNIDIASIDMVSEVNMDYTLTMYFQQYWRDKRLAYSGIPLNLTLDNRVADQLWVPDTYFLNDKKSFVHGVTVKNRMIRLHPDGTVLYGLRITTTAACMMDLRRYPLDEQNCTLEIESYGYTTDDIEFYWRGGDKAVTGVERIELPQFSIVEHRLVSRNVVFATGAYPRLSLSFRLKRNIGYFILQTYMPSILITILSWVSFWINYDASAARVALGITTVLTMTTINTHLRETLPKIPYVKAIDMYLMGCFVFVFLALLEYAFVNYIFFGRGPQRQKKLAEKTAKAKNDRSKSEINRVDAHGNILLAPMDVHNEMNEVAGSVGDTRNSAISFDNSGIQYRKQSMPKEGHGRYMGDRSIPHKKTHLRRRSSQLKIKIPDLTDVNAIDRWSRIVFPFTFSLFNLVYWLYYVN

[11] = target: GABA-A receptor; alpha-5/beta-3/gamma-2 (Homo sapiens, UniProt P18507+P28472+P31644); test: […] human GABA-A receptor alpha5beta3gamma2 expressed in HEK293 cells by electrophysiology assay; format: cell-based
[12] = target: Gamma-aminobutyric acid receptor subunit alpha-2/beta-3/gamma-2 (Rattus norvegicus, UniProt P18508+P23576+P63079); test: […] rat GABA-A receptor alpha2beta3gamma2 expressed in HEK293 cells by electrophysiology assay; format: cell-based
Chain of Gamma-aminobutyric acid receptor subunit alpha-2/beta-3/gamma-2 (P18508 whole entry): as the sequence (P18508 whole entry) above
Chain of Gamma-aminobutyric acid receptor subunit alpha-2/beta-3/gamma-2 (P23576 whole entry): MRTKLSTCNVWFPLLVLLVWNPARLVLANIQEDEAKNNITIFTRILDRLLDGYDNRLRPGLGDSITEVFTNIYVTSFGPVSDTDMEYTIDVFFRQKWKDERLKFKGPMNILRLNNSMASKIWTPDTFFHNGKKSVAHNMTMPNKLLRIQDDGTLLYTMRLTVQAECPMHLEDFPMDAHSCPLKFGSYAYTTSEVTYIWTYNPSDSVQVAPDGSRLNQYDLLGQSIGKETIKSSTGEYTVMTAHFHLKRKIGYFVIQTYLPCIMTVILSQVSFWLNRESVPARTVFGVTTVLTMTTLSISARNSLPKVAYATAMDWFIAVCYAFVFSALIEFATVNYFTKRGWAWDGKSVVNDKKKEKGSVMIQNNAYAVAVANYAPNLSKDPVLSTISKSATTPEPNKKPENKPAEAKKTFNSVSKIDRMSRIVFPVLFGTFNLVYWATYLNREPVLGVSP
Chain of Gamma-aminobutyric acid receptor subunit alpha-2/beta-3/gamma-2 (P63079 whole entry): as the sequence (P63079 whole entry) above

[13] = target: GABA-A receptor; alpha-1/beta-2/gamma-2 (Rattus norvegicus, UniProt P18508+P62813+P63138); test: […] rat GABA-A receptor alpha1beta2gamma2 expressed in HEK293 cells by electrophysiology assay; format: cell-based
Chain of GABA-A receptor; alpha-1/beta-2/gamma-2 (Rattus norvegicus, UniProt P18508+P62813+P63138) (P18508 whole entry): as the sequence (P18508 whole entry) above
Chain of GABA-A receptor; alpha-1/beta-2/gamma-2 (Rattus norvegicus, UniProt P18508+P62813+P63138) (P62813 whole entry): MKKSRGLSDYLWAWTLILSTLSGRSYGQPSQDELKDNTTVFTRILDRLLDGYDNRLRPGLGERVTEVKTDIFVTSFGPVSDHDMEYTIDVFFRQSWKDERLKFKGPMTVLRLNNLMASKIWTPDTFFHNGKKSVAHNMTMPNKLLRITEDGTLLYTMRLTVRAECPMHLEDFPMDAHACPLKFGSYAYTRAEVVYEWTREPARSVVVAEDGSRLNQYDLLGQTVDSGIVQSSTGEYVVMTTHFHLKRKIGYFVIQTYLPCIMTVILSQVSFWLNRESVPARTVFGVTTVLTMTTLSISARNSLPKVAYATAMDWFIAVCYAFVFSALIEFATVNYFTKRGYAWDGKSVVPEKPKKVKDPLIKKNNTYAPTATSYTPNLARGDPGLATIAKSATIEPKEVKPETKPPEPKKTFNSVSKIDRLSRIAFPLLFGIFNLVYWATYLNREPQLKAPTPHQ
Chain of GABA-A receptor; alpha-1/beta-2/gamma-2 (Rattus norvegicus, UniProt P18508+P62813+P63138) (P63138 whole entry): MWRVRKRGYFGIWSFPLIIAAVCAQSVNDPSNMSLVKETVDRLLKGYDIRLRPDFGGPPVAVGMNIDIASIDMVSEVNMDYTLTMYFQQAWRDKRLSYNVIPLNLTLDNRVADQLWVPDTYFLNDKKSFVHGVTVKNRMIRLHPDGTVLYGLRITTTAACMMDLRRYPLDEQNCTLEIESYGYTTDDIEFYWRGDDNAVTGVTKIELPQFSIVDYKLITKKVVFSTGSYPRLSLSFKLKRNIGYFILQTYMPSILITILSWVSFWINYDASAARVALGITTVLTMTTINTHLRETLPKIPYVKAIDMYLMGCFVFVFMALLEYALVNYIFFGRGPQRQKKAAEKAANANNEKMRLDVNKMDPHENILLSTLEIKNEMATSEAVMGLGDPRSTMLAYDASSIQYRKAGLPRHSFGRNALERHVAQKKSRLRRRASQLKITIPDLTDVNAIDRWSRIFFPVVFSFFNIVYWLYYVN

[14] = target: GABA-A receptor; alpha-1/beta-2/gamma-2 (Homo sapiens, UniProt P14867+P18507+P47870); test: […] human GABA-A receptor alpha1beta2gamma2 expressed in HEK293 cells by electrophysiology assay; format: cell-based
[15] = target: GABA-A receptor; alpha-3/beta-3/gamma-2 (Homo sapiens, UniProt P18507+P28472+P34903); test: […] human GABA-A receptor alpha3beta3gamma2 expressed in HEK293 cells by electrophysiology assay; format: cell-based
[16] = target: GABA-A receptor; alpha-2/beta-3/gamma-2 (Homo sapiens, UniProt P18507+P28472+P47869); test: […] human GABA-A receptor alpha2beta3gamma2 expressed in HEK293 cells by electrophysiology assay; format: cell-based
[17] = target: GABA A receptor alpha-5/beta-3/gamma-2 (Rattus norvegicus, UniProt P18508+P19969+P63079); test: […] rat GABA-A receptor alpha5beta3gamma2 expressed in HEK293 cells by electrophysiology assay; format: cell-based

Row | SMILES | EC50 [3] | Emax [4] | also measured
1 | CNC1=Nc2ccc(Cl)cc2C(c2ccccc2)=N[C@H]1C(C)C |  |  | Activity [1]: inactive
2 | CC(C)[C@@H]1N=C(c2ccccc2)c2cc(Cl)ccc2NC1=O | 777 nM | 90% | EC50 [2]: 57 µM
3 | CC(C)[C@@H]1N=C(c2cccc(Cl)c2)c2cc(Cl)ccc2NC1=S | 172 nM | 112% | 
4 | CC(=O)c1ccc2c(c1)C(c1ccccc1)=NC(C)C(=S)N2 (stereo not given) | > 10000 nM |  | 
5 | C[C@@H]1N=C(c2ccccc2)c2ccccc2NC1=S |  |  | EC50 [2]: 68 µM
6 | S=C1COC(c2ccccc2)c2cc(Cl)ccc2N1 (stereo not given) | > 10000 nM |  | 
7 | S=C1Nc2ccc(Cl)cc2C(c2ccccc2)=NC1n1ccnc1 (racemic) | > 10000 nM |  | 
8 | CC(C)[C@@H]1N=C(c2ccccc2)c2cc(Cl)ccc2N(C)C1=S | > 10000 nM |  | EC50 [2]: 73 µM
9 | COC(C)C1N=C(c2ccccc2)c2cc(Cl)ccc2NC1=S (racemic) | 354 nM | 98% | 
10 | CCOC(=O)C1N=C(c2ccccc2)c2cc(Cl)ccc2NC1=S (racemic) | > 10000 nM |  | 
11 | CCC1N=C(c2ccccc2)c2cc(N)ccc2NC1=S (stereo not given) | > 10000 nM |  | 
12 | CC(C)[C@@H]1N=C(c2ccccc2)c2cc(-c3ccccc3)ccc2NC1=S | 1470 nM | 108% | 
13 | CC(C)=C1N=C(c2ccccc2)c2cc(Cl)ccc2NC1=S | > 10000 nM |  | 
14 | CC[C@@H]1N=C(c2ccccc2)c2cc(Cl)ccc2NC1=S | 187 nM | 66% | 
15 | CSc1ccc2c(c1)C(c1ccccc1)=NCC(=S)N2 | 870 nM | 71% | 
16 | CCCC1=N[C@@H](C(C)C)C(=S)Nc2ccc(Cl)cc21 | > 10000 nM |  | 
17 | CC1N=C(c2ccccc2)c2cc(C#N)ccc2NC1=S (stereo not given) | > 10000 nM | 47% | 
18 | Fc1ccccc1C1=N[C@H](c2ccccc2)C(=S)Nc2ccc(Cl)cc21 | > 10000 nM |  | 
19 | Fc1ccccc1C1=NCC(=S)Nc2ccc(I)cc21 | 2150 nM | 63% | 
20 | S=C1CN=C(c2ccccc2)c2ccccc2N1 | > 10000 nM |  | 
21 | CC(C)(O)C1N=C(c2ccccc2)c2cc(Cl)ccc2NC1=S (racemic) | 1850 nM | 113% | 
22 | Cc1ccc2c(c1)C(c1ccccc1)=NCC(=S)N2 | 3680 nM | 91% | 

Row | SMILES | EC50 [3] | Emax [4] | also measured
23 | COc1ccc2c(c1)C(c1ccccc1)=N[C@@H](C(C)C)C(=S)N2 | 559 nM | 105% | 
24 | CCC[C@]1(C)N=C(c2ccccc2)c2cc(Cl)ccc2NC1=S | 104 nM |  | 
25 | FC(F)(F)C[C@@H]1N=C(c2ccccc2)c2cc(Cl)ccc2NC1=S | 311 nM | 74% | 
26 | O=[N+]([O-])c1ccc2c(c1)C(c1ccccc1)=NCC(=S)N2 | 4480 nM | 40% | 
27 | Fc1ccccc1C1=NCC(=S)Nc2ccccc21 | > 10000 nM |  | 
28 | Cc1ccc2c(c1)C(c1ccccc1)=NC(C(C)C)C(=S)N2 (stereo not given) | 62 nM | 129% | 
29 | CN1C(=S)CN=C(c2ccccc2)c2cc(Cl)ccc21 [SULAZEPAM] | > 10000 nM |  | 
30 | Fc1ccccc1C1=NCc2cnnn2-c2ccc(Cl)cc21 |  |  | Activity [1]: inactive
31 | Fc1ccccc1C1=NCC(=S)Nc2ccc(Cl)cc21 | 317 nM | 95% | 
32 | CC(C)[C@@H]1N=C(c2cccnc2)c2cc(Cl)ccc2NC1=S | 275 nM | 112% | 
33 | S=C1Cc2ccccc2-c2cc(Cl)ccc2N1 | > 10000 nM |  | 
34 | CC(C)C1C(=O)N(c2ccccc2)c2cc(Cl)ccc2NC1=S (stereo not given) | 267 nM | 93% | 
35 | CC(=O)OC1C=C(c2ccccc2F)c2cc(Cl)ccc2NC1=S (stereo not given) | 649 nM | 92% | 
36 | CC(C)[C@@H]1N=C(C2CCCCC2)c2cc(Cl)ccc2NC1=S | 414 nM | 75% | 
37 | S=C1CC(c2ccccc2)=Nc2cc(Cl)ccc2N1 | > 10000 nM |  | 
38 | CC(C)[C@@H]1N=C(c2ccccc2)c2cc(OC(F)(F)F)ccc2NC1=S | 232 nM | 127% | 
39 | CCC[C@@H]1N=C(c2ccccc2)c2cc(Cl)ccc2NC1=S | 238 nM | 129% | 
40 | S=C1CN=C(c2ccccc2)c2cc(Br)ccc2N1 | 962 nM | 92% | 
41 | CC(C)[C@@H]1N=C(c2ccc(C(F)(F)F)cc2)c2cc(Cl)ccc2NC1=S | > 10000 nM |  | 
42 | CC(C)[C@H]1N=C(c2ccccc2F)c2cc(Cl)ccc2NC1=S | 420 nM | 119% | 
43 | Fc1ccccc1C1=N[C@@H](C2CC2)C(=S)Nc2ccc(Cl)cc21 | 165 nM | 79% | 
44 | CSC1=Nc2ccc(Cl)cc2C(c2ccccc2)=N[C@H]1C(C)C |  |  | Activity [1]: inactive

Row | SMILES | EC50 [3] | Emax [4] | also measured
45 | CC1N=C(c2ccccc2)c2ccccc2NC1=S (racemic) | 552 nM | 88% | EC50 [2]: 0.061 µM
46 | CC(C)[C@@H]1N=C(N2CCCCC2)c2cc(Cl)ccc2NC1=S | > 10000 nM |  | 
47 | FC(F)(F)c1ccc2c(c1)C(c1ccccc1)=NCC(=S)N2 | 516 nM | 92% | 
48 | CC(C)[C@@H]1N=C(c2ccccc2)c2cc(C(F)(F)F)ccc2NC1=S | 71 nM | 72% | Stability [5]: Stable; Drug metabolism [6]: Metabolite_Detected; inhibition (INH) [7]: Not Active; Activity [8]: Not Active; Stability [9]: Stable
49 | CC(C)[C@@H]1N=C(c2ccccn2)c2cc(Cl)ccc2NC1=S | 289 nM | 103% | 
50 | CC(C)[C@@H]1N=C(c2ccccc2)c2cc(Cl)ccc2N=C1N |  |  | Activity [1]: inactive
51 | CC(C)C[C@@H]1N=C(c2ccccc2)c2cc(Cl)ccc2NC1=S | 317 nM | 107% | 
52 | CC(C)[C@@H]1N=C(c2ccccc2)c2cc(Cl)ccc2NC1=S | 70 nM | 102% | EC50 [10]: > 24 µM; EC50 [11]: > 24 µM; EC50 [12]: > 24 µM; EC50 [13]: > 24 µM; EC50 [14]: > 24 µM; EC50 [15]: > 24 µM; EC50 [16]: > 24 µM; EC50 [17]: > 24 µM
53 | CCOC1N=C(c2ccccc2)c2cc(Cl)ccc2NC1=S (racemic) | > 10000 nM |  | 
54 | Fc1ccccc1C1=N[C@@H](c2ccccc2)C(=S)Nc2ccc(Cl)cc21 | 1470 nM | 75% | 
55 | C[C@@H]1N=C(c2ccccc2)c2cc(Cl)ccc2NC1=S | 103 nM | 67% | 
56 | S=C1Nc2ccc(Cl)cc2C(c2ccccc2)=N[C@H]1CC1CC1 | 251 nM | 108% | 
57 | CC(C)C1C(=S)Nc2ccc(Cl)cc2C(c2ccccc2)=[N+]1[O-] (stereo not given) | 349 nM | 112% | 
58 | CC(C)[C@@H]1N=C(c2ccccc2)c2ccc(Cl)cc2NC1=S | 399 nM | 117% | 
59 | Fc1ccccc1C1=CCC(=S)Nc2ccc(Cl)cc21 | 317 nM | 95% | 
60 | CC(C)C[C@@H]1N=C(c2ccccc2Cl)c2cc(Cl)ccc2NC1=S | > 10000 nM |  | 
61 | CC(C)[C@H]1N=C(c2ccccc2)c2cc(Cl)ccc2NC1=S | 521 nM | 86% | EC50 [2]: 267 µM
62 | CCC[C@@]1(C)N=C(c2ccccc2)c2cc(Cl)ccc2NC1=S | > 10000 nM |  | 
63 | SC1=Nc2ccc(Cl)cc2C(c2ccccc2)=NC1 | 180 to 857 nM | 82 to 92% | 
64 | CCC1CN(c2ccccc2)c2cc(Cl)ccc2NC1=S (stereo not given) | 50 nM | 76% | 
